US10941157B2, “Pesticidal compositions and uses thereof” (Gilead Apollo, LLC, priority 2015, dated 2021)
Like-named read-outs stand apart in the source and are kept apart here.

Key:
Type in all cases: in vivo
Fusarium graminearum [1] = details: spray on flowering Triticum aestivum cv. Samson, inoculated 24 hours after treatment, evaluated 14 days later
Fusarium graminearum [2] = details: corn from treated seeds, 0.025 mg/seed, F. graminearum inoculated
Phakopsora pachyrhizi = test: Foliar protection test for Asian soybean rust control; details: foliar application to soybean (Glycine max AG4832), percent disease area evaluated 14 days later
Sphaerotheca fuliginea = test: Foliar protection for cucumber powdery mildew control; details: foliar spray on Cucumis sativus cv. Straight Eight, inoculated 24 hours after treatment, evaluated 7 days later
Outline: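 Cucumber plants (cv. Straight Eight, 10 days old) sprayed to wetness on both leaf surfaces, then inoculated 24 h later by shaking sporulating stock plants over them. Held at 23–27 °C, 16 h light, 60% RH. Mildew colonization scored 7 days after inoculation, at compound concentrations of 10 ppm or lower.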

[3] = test system: Blumeria graminis f. sp. hordei; test: Early foliar disease control via seed treatment (barley powdery mildew); details: seed treatment rate 0.025 mg/seed; barley inoculated 7 days after planting, evaluated 7 days later
Method: Barley seeds (Hordeum vulgare cv. Perry or Conlon) were treated with a test compound dissolved in pure acetone, in which the acetone solution (1 mL) was used per 50 seeds in glass jars in a fume hood. The seeds were swirled in the glass jars by hand until no obvious presence of acetone remained and the seeds were mostly dry. Plants were grown for 7 days in 2-inch square pots containing Metromix 200 medium amended with fertilizer. […] After inoculation with the pathogen of Blumeria graminis f. sp. hordei, plants were kept at conditions of 20 to 22° C., 200 uM of light, 70% humidity to facilitate infection and disease development. At 7 days after planting (1st true leaf fully expanded), the plants were moved to the cooler chamber and inoculated by shaking well-colonized, untreated stock plants above the treated material. […] Efficacy was evaluated in 7 days later by examining leaves for colonization and growth of powdery mildew. Each side of each leaf was assigned a severity rating of 0, 1, 5, 10, 25, 50, 75, or 100 percent diseased area. Table 14 lists the results of barley powdery mildew control upon seed treatment with test compounds.

Compound	Wheat Fusarium Head Blight Control at a compound concentration of 25 ppm or lower (Fusarium graminearum [1])	Plant Height (Fusarium graminearum [2]; Table 12) [cm]	Plant Height (Fusarium graminearum [2]; Table 13) [cm]	Asian Soybean Rust Control at a compound concentration of 25 ppm or lower (Phakopsora pachyrhizi)	Cucumber Powdery Mildew Control at a compound concentration of 10 ppm or lower (Sphaerotheca fuliginea)	Barley Powdery Mildew Reduction (%) [3] [%]
COc1ccc(F)cc1[C@H](Cn1c(=O)n(C(C)(C)C(=O)NC(C)C)c(=O)c2c(C)c(-n3nccn3)sc21)OCCC#N [Compound I-095, (R)-2-(1-(2-(2-cyanoethoxy)-2-(5-fluoro-2-methoxyphenyl)ethyl)-5-methyl-2,4-dioxo-6-(2H-1,2,3-triazol-2-yl)-1,4-dihydrothieno[2,3-d]pyrimidin-3 (2H)-yl)-N-isopropyl-2-methylpropanamide]	B (from 50 to 69% control of wheat fusarium head blight)	39.41	43.97	AA (≥85% control of Asian soybean rust)	AA (≥85% control of cucumber powdery mildew)	–
COc1ccccc1[C@H](Cn1c(=O)n(C(C)(C)C(=O)NC(C)C)c(=O)c2c(C)c(-n3nccn3)sc21)OCCC#N [Compound I-193, (R)-2-(1-(2-(2-cyanoethoxy)-2-(2-methoxyphenyl)ethyl)-5-methyl-2,4-dioxo-6-(2H-1,2,3-triazol-2-yl)-1,4-dihydrothieno[2,3-d]pyrimidin-3 (2H)-yl)-N-isopropyl-2-methylpropanamide]	B (from 50 to 69% control of wheat fusarium head blight)	–	40.66	AA (≥85% control of Asian soybean rust)	AA (≥85% control of cucumber powdery mildew)	96
COc1ccc(F)cc1[C@H](Cn1c(=O)n(C(C)(C)C(=O)NC(C)C)c(=O)c2c(C)c(-n3cccn3)sc21)OCCC#N [Compound I-191, (R)-2-(1-(2-(2-cyanoethoxy)-2-(5-fluoro-2-methoxyphenyl)ethyl)-5-methyl-2,4-dioxo-6-(1H-pyrazol-1-yl)-1,4-dihydrothieno[2,3-d]pyrimidin-3 (2H)-yl)-N-isopropyl-2-methylpropanamide]	C (from 25 to 49% control of wheat fusarium head blight)	35.50	–	A (from 70% to 84% control of Asian soybean rust)	AA (≥85% control of cucumber powdery mildew)	94
